Laboratory results from a melting point compilation (Tetko et al.; mined from patent text by program, amines drawn as free bases though some values may be those of a salt).

Structure (SMILES) | melting point [°C]
CN(C(=O)CBr)c1cccc(-c2ccnc3c(C(=O)c4ccccc4)cnn23)c1 | 175 to 177
CCCCNS(=O)(=O)c1cc(C(=O)O)cc(NCc2ccccc2)c1Oc1ccccc1 | 212
COC(=O)c1ccccc1C(=O)OCC1CN(C(=O)Oc2ccccc2)CCC1c1ccc(F)cc1 (stereo not drawn) | 139 to 141
Cc1cc(Nc2cc(-c3cccc(N4CCc5c(cc6n5CCCC6)C4=O)c3CO)cn(C)c2=O)n[nH]1 | 199 to 200
O=S1(=O)N=C(n2ccnc2)Nc2cc(F)c(F)cc21 | 264 to 266
O=C1Nc2ccc(Br)cc2C12CCNCC2 | 256 to 258
Cc1c(Cl)c(Oc2c(Cl)cc(C(F)(F)F)cc2Cl)nn1C(=O)NC(C)C | 109 to 111
CC(C)Oc1cc(CCCOc2cc(CCC(=O)O)n(Cc3ccccc3)n2)n(Cc2ccc(Cl)cc2Cl)n1 | 123 to 126
O=C1CCC(NC(=O)OC(=O)c2ccccc2)(C(=O)OCc2ccc([N+](=O)[O-])cc2)O1 (stereo not drawn) | 127 to 128
Cc1nnc(-c2ccc3occ(-c4ccc(N(C)C)cc4)c3c2)o1 | 205 to 206
CCOC(=O)C1=C(N)OC(C)=C(C(=O)OC)C1c1cccc([N+](=O)[O-])c1 (stereo not drawn) | 134
C=CCOC(=O)C(C)(C)ON1C(=O)c2ccccc2C1=O | 51 to 53
N#Cc1ccc(C2NCCS2)cc1 (stereo not drawn) | 57 to 58
CCC(C)(C)OOC(C)(CCC(=O)NNC(=O)C(C#N)=C(c1ccccc1)c1ccccc1)OOC(C)(C)CC | 145 to 148
Cc1cc(-c2cc(Cl)n(C)n2)c(C)[nH]1 | 59 to 61
CCCOCCCCCCCCCC(=O)O | < 30
CCCc1c(OCc2cccn3c(=O)c(C(=O)O)cnc23)ccc(C(C)=O)c1O | 170 to 172
C[C@H]1CC(=O)O[C@@H]1CO | 104 to 105
COC(=O)CCNCC1CC2c3cc(C(C)(C)C)cc4[nH]cc(c34)CC2N(C)C1 (stereo not drawn) | 153 to 157
O[C@@H]1CNCC[C@H]1Oc1ccc2c(c1)CCCC2 (relative stereo) | 125 to 127
N#Cc1ccc(C(=O)Nc2ccc(OCCN3CCOCC3)c3ccccc23)cc1 | 213 to 214
O=C(NC1CCC2(O)C3Cc4ccc(O)c5c4C2(CCN3CC2CC2)C1O5)c1ccccc1 (stereo not drawn) | 182 to 185
CC(=O)c1ccc(OC2SCC(O)C(O)C2O)cc1 (stereo not drawn) | 195 to 198

Structure (SMILES) | melting point [°C]
CCNC(=O)c1cc(-c2ccc(OC)cc2)nn(CC2CCCC2)c1=O | 129
CCCc1nc(C)n2c(=O)n(CC(=O)O)nc2c1Cc1ccc(NC(=O)c2ccccc2S(=O)(=O)O)cc1 | 296 to 300
CS(=O)(=O)OCCn1c2ccc(O)cc2c2c3c(c(-c4c(Cl)cccc4Cl)cc21)C(=O)NC3=O | 255 to 260
O=C(NCCCC(CCCNC(=O)c1ccccc1)OC(F)(F)F)c1ccccc1 | 115 to 118
C#CCCOc1ccc(/C=C/C(=O)Nc2ccccc2C(=O)O)cc1OC | 178 to 180
FC(F)(F)C(c1cc(-c2ccccc2)c(-c2ccccc2)[nH]1)C(F)(F)F | 112 to 114
CON1C=C2N=NC3=C(N2C1)N(c1ccccn1)CC(C1CC1)=C3 | 162 to 164
CCN1CN2C(=N1)C(c1ccccc1Cl)=NCC1=C2S(=O)C(C(=O)NC)C1 (stereo not drawn) | 193 to 194
O=P(Cc1ccc2ccccc2c1-c1c(CP(=O)(c2cccc(F)c2)c2cccc(F)c2)ccc2ccccc12)(c1cccc(F)c1)c1cccc(F)c1 | 280 to 284
Cc1cccc(NC(=O)NCC(=O)N(CC(=O)Nc2ccc3c(c2)CCC3)c2ccccc2)c1 | 210
CC(C)COC(=O)CC1CC(c2ccc(C#N)cc2)=NO1 (single isomer, unassigned; (-)) | 98 to 100
COc1cc(OC)nc(-c2c(C)[nH]c3ccc(Cl)cc23)n1 | 179 to 181
CCCc1cc(O)ccc1-c1noc2cc(O)ccc12 | 189 to 191
CCCCCN(CC(=O)OCC)C(=O)C(CCC(=O)O)CS(=O)(=O)c1ccc2ccccc2c1 (stereo not drawn) | 77 to 80
COc1ccc(N2Cc3nc(CO)nn3-c3cccnc32)cc1 | 190 to 194
O=C1OC(=O)[C@H](Cc2ccccc2)C[C@H]1Cc1ccccc1 | 172 to 174
CC(C)(C)C(C(N)=O)c1cccc(Nc2ncnc3[nH]cc(C(=O)c4ccccc4)c23)c1 (stereo not drawn) | 288 to 290
N#CCC1CC(=O)N(c2ccc(Cl)cc2)C1 (stereo not drawn) | 92 to 94
COc1c(CN)c2c(c3c1OC(C)(C)C3)C(c1ccccc1)=NC(C)(C)C2 | 140 to 142
COc1ccc(/C=C/C(=O)/C=C/C(=O)O)cc1 | 104
Cc1sc(CO)cc1CC#N | 66 to 68
COc1c(CN2C(=O)c3ccccc3C2=O)c2c(c3c1OC(C)(C)C3)C(c1ccccc1)=NC(C)(C)C2 | 193 to 195
CCn1nc(C(=O)NC2CN(C)CCN(Cc3ccccc3)C2)c2ccccc21 (stereo not drawn) | 135 to 137

Structure (SMILES) | melting point [°C]
Cc1cc(C)c2c(c1C)NC(C)(CCCC(C)CCCC(C)CCCC(C)C)CC2 (stereo not drawn) | 72 to 73
CCSc1ccc(CC(=O)NC(NC(=NC#N)Nc2cccc3ncccc23)C(C)(C)C)cc1 (stereo not drawn) | 189 to 190
CC(=Cc1ccc(OCCCNc2ccc(Cl)cc2)cc1)C(=O)O | 188 to 193
COCc1c(C(=O)NC(C)C)ncc2[nH]c3cccc(Oc4ccc(Cl)cc4)c3c12 | 255
O=C(Nc1cccc2[nH]ccc12)c1cc([N+](=O)[O-])ccc1O | > 260
Cn1cnc2ccc(-c3nnc(SCc4cccc(C(F)(F)F)c4)o3)cc21 | 126 to 127
CC(=O)OC(C)c1ccc(Cl)c2nc3n(c12)CCCN3c1ccc(Cl)cc1Cl (stereo not drawn) | 204 to 206
Cn1cc(C2=C(c3cn(CCCSc4ncccn4)c4ccccc34)C(=O)NC2=O)c2ccccc21 | 125 to 127
Cc1ccc(S(=O)(=O)Nc2ccc(-c3ccccc3)cn2)cc1 | 187 to 189
Cc1ccc(NC(=S)NCCCO)c(C)c1 | 90 to 93
CCC(CC(=O)NC(=O)OC(C)(C)C)Nc1ccc(C)cc1 (stereo not drawn) | 96 to 97
O=C(Nc1cc(Cc2n[nH]c(=O)c3ccccc23)ccc1N1CCOCC1)c1cccc(CCl)c1 | 117 to 122
CC(C)Cc1ccc2nc(Cl)c(S(N)(=O)=O)n2n1 | 168 to 170
CCCCCCCN(Cc1ccc(C(C)(C)C)cc1)C(Nc1ccc(F)cc1F)=C1C(=O)COC1=O | 89 to 92
[N-]=[N+]=Nc1ccc(C(=O)OCCOC(=O)CC[C@@H](C(=O)O)n2c3ccccc3c3ccccc32)cc1 | 70
NC(=O)Cc1ccc2c(c1)CCc1ccccc1S2 | 188 to 189
CCN(CC)C(=O)c1cc(-c2ccccc2)c(=O)n2c1-c1ccccc1C2 | 170 to 172
Cc1cc(O)c(S(=O)CC2CCCCC2)c(=O)o1 (stereo not drawn) | 132 to 134
N#CS/C=C\C(=O)OCc1ccccc1 | 48.5 to 50.5
Oc1cc(-c2ccc(Cl)cc2)[nH]n1 | 240 to 241
COC1=CCc2cccc(NC(C)=O)c2C1 | 191 to 192
O=C(Nc1ccc(CN2C(=O)[C@H]3CCC[C@H]3N(C(=O)CN3C(=O)c4ccccc4C3=O)c3ccccc32)cc1)c1ccc(F)cc1 (relative stereo) | 244 to 246
